From PMC4391943, “Novel Epigallocatechin-3-Gallate (EGCG) Derivative as a New Therapeutic Strategy for Reducing Neuropathic Pain after Chronic Constriction Nerve Injury in Mice” (PLoS ONE, 2015)

Experiments:
[1] = biological target: T1, fatty acid synthase (FASN) (Mus musculus, UniProt P19096); test: Fatty acid synthase activity in the dorsal horn of the spinal cord of treated CCI-mice (NADPH oxidation, A340); type: in vivo; conditions: 50 mg/Kg, n = 5; for FASN activity, % of vehicle group: 14 dpi
T1 construct: The dorsal horn of the spinal cord tissue was homogenized in lysis buffer; from tissue; host or cells: dorsal horn of the spinal cord of female Balb-c mice (CCI model)
Procedure: For dose response studies, EGCG and the two synthetic EGCG derivatives compound 23 and compound 30 were administered by intra-peritoneal injection at 10, 30, 50 and 100 mg/Kg (n = 5 mice/compound/dose), 30 minutes after the CCI. To analyze the time-dependent effect EGCG and the two synthetic EGCG derivatives compound 23 and compound 30 were administered by intra-peritoneal injection at 50 mg/Kg (n = 15 mice/compound), 30 minutes after the CCI. Another set of animals were used to study the effect of 50 mg/kg of EGCG and the two synthetic EGCG derivatives compound 23 and compound 30 at 14 dpi (n = 15 mice/compound). In all cases, the administration was daily repeated during the first week. All compounds were dissolved in DMSO/saline solution (1:9; v/v), used as vehicle group.
The fatty acid synthase (FASN) activity was assayed in particle-free supernatants by recording spectrophotometrically at 37°C (Lambda Bio 20, Perkin Elmer Boston, MA, USA, EUA) and measuring the decrease of A340 nm due to oxidation of NADPH as previously described. Briefly, mice (n = 5 per group) were sacrificed with sodium pentobarbital (90 mg/kg; i.p.) at 14 and 56 dpi. Spinal cord segments distal to T12 vertebra were quickly removed and snap frozen. The dorsal horn of the spinal cord tissue was homogenized in lysis buffer (250mM sucrose, 20 mM HEPES pH 7.6, 2 mM MgCl2, 1 mM DTT, 1 mM EDTA, 50 mM NaF, 2 mM phenylmethylsulfonyl fluoride (PMSF), 1 μg/μL aprotinin, 1 μg/μL leupeptin, 2 mM sodium orthovanadate). Homogenized samples were centrifuged at 3,500 x g for 10 minutes, and then supernatant was collected and centrifuged at 100,000 x g for 30 minutes to obtain supernatants particle-free. The protein concentrations were determined using the Dc protein assay kit. A 90 μg amount of protein was used for the reaction. A pre-incubation during 15 minutes at 37°C in 0.2 M of potassium phosphate buffer, pH = 7.0 was kept for temperature equilibration. Then, samples were added to the reaction mixture (200 mM potassium phosphate buffer, pH 7.0; 1 mM EDTA; 1 mM dithiothreitol, 30 μM Acetyl-CoA and 0.24 mM NADPH) and then were monitored at 340 nm for 3 minutes to measure background NADPH oxidation. After the addition of 50 μM of malonyl-CoA, the reaction was assayed for 10 minutes to determine FASN-dependent oxidation of NADPH. Rates were corrected with the background rate of NADPH oxidation.

NF-κB = test: Western blot of nuclear NF-κB levels in the dorsal horn of the spinal cord; type: in vivo, mice; conditions: 50 mg/Kg, 14 dpi
Procedure: Subcellular fractionation was obtained by differential centrifugation as described elsewhere. Briefly, tissue was homogenized in lysis buffer (10 mM Tris-HCl pH 7.5, 1 mM EDTA, 1 mM Na3VO4, 0.25 M sucrose, 2 mM PMSF, 1 μg/μL aprotinin, 1 μg/μL leupeptin, 2 mM sodium orthovanadate). The homogenate was centrifuged at 2,000 × g for 10 min at 4°C to separate the nuclei fraction (P1). The P1 was resuspended in lysis buffer. The resulting supernatant was centrifuged at 10,000×g for 15 min at 4°C to obtain a crude membrane fraction (P2). The P2 was resuspended and incubated in the lysis buffer containing 0.5% Triton X-100 for 15 min, and then centrifuged at 25,000 × g for 20 min to obtain the synaptosomal membrane fraction (P3). Finally, the P3 was resuspended in lysis buffer and centrifuged on a discontinuous sucrose gradient (0.8 M, 1 M and 1.2 M) at 150,000×g for 2 h. Synaptic plasma membrane (SPM) was collected from the 1:1.2 M interface and resuspended in 50 mM HEPES, 2 mM EDTA, 1 mM PMSF, 10 μg/ml aprotinin, 1 μg/ml leupeptin and 2 mM sodium orthovanadate.
(§1) Western blotting was performed as previously described. The following primary antibodies were used: anti-FASN (1:1000, BD Bioscience, San Jose, CA); anti-TNF-α, anti-IL-1β, anti-IL-6 and anti-NFκB (all 1:500, Santa Cruz Biotechnology, Santa Cruz, CA); anti-phosphoNMDAR2B (Tyr1472) (1:2000, Affinity Bioreagents, Golden, CO) and anti-NMDAR2B (1:1000, Chemicon, Temecula, CA). Loading control was performed by reprobing the membranes with anti-actin (1:10,000; MP Biochemicals, Aurora, OH), anti-NeuN (1:1,000; Chemicon) or anti-N-cadherin (1:1000, BD Bioscience). Membranes were incubated with the corresponding horseradish peroxidase-conjugated antibody (1:2,000; Promega, Madison, WI). Immunoreactive bands were visualized using the Western Blotting Luminol Reagent and quantified by a computer-assisted densitometer (Gel-Pro Analyzer, version 4, Media Cybernetics).

[2] = Serum stability study, mouse serum; type: in vitro ADME; conditions: mouse (Balb/c) serum, 37°C, 75% serum, 0.5 mM compound; for half-life at 0.5 mM: mouse serum (75% final serum content), read-out: half-life (t1/2) (converted)
Procedure: Peptide stabilities were assayed in diluted serum as previously described. Human serum (Sigma, S7023) or mouse serum (Europa Bioproducts, EQSM-0100) were incubated at 37°C for 10 min. The assay was initiated upon the addition of the test compound solved in PBS to the serum (75% final serum content) for a final compound concentration of 0.5 mM. Then, 500 µL aliquots of the incubations were taken for the following time points: 0, 15, 30, 60, 120 and 240 min. The aliquots were mixed with 750 µL of cold acetonitrile (ACN) and incubated at 4°C for 10 min to precipitate serum proteins. The supernatant was collected for each sample after centrifugation at 39,000 g for 10 min and were immediately analyzed by high performance liquid chromatography-mass spectrometry (HPLC-MS).

[3] = Toxicity studies: body weight, food and fluid intake, histological examination; type: in vivo, mice; conditions: vs control animals (data not shown)
FASN = test system: FASN; parameters: method as in PMID 22559865; conditions: previously reported; cited from earlier work
[4] = parameters: method as in PMID 20008854, PMID 22559865, PMID 17902053; conditions: previously published toxicity studies; cited from earlier work
TNF-α, IL-1β and IL-6 = test: Western blot of cytokine protein levels in the dorsal horn of the spinal cord; type: in vivo, mice; conditions: 50 mg/Kg, 14 dpi
Procedure: Mice (n = 5 per group) were sacrificed with sodium pentobarbital (90 mg/kg; i.p.) at 14 and 56 dpi and spinal cord segments distal to T12 vertebra were quickly removed and frozen. For total protein extraction, the dorsal horn of the spinal cord was homogenized in modified RIPA buffer (50 mM Tris–HCl pH 7.5, 1% Triton X-100, 0.5% sodium deoxycholate, 0.2% SDS, 100 mM NaCl, 1 mM EDTA, 2 mM PMSF, 1 μg/μL aprotinin, 1 μg/μL leupeptin and 2 mM sodium orthovanadate).
as §1

T1 sequence (P19096 whole entry): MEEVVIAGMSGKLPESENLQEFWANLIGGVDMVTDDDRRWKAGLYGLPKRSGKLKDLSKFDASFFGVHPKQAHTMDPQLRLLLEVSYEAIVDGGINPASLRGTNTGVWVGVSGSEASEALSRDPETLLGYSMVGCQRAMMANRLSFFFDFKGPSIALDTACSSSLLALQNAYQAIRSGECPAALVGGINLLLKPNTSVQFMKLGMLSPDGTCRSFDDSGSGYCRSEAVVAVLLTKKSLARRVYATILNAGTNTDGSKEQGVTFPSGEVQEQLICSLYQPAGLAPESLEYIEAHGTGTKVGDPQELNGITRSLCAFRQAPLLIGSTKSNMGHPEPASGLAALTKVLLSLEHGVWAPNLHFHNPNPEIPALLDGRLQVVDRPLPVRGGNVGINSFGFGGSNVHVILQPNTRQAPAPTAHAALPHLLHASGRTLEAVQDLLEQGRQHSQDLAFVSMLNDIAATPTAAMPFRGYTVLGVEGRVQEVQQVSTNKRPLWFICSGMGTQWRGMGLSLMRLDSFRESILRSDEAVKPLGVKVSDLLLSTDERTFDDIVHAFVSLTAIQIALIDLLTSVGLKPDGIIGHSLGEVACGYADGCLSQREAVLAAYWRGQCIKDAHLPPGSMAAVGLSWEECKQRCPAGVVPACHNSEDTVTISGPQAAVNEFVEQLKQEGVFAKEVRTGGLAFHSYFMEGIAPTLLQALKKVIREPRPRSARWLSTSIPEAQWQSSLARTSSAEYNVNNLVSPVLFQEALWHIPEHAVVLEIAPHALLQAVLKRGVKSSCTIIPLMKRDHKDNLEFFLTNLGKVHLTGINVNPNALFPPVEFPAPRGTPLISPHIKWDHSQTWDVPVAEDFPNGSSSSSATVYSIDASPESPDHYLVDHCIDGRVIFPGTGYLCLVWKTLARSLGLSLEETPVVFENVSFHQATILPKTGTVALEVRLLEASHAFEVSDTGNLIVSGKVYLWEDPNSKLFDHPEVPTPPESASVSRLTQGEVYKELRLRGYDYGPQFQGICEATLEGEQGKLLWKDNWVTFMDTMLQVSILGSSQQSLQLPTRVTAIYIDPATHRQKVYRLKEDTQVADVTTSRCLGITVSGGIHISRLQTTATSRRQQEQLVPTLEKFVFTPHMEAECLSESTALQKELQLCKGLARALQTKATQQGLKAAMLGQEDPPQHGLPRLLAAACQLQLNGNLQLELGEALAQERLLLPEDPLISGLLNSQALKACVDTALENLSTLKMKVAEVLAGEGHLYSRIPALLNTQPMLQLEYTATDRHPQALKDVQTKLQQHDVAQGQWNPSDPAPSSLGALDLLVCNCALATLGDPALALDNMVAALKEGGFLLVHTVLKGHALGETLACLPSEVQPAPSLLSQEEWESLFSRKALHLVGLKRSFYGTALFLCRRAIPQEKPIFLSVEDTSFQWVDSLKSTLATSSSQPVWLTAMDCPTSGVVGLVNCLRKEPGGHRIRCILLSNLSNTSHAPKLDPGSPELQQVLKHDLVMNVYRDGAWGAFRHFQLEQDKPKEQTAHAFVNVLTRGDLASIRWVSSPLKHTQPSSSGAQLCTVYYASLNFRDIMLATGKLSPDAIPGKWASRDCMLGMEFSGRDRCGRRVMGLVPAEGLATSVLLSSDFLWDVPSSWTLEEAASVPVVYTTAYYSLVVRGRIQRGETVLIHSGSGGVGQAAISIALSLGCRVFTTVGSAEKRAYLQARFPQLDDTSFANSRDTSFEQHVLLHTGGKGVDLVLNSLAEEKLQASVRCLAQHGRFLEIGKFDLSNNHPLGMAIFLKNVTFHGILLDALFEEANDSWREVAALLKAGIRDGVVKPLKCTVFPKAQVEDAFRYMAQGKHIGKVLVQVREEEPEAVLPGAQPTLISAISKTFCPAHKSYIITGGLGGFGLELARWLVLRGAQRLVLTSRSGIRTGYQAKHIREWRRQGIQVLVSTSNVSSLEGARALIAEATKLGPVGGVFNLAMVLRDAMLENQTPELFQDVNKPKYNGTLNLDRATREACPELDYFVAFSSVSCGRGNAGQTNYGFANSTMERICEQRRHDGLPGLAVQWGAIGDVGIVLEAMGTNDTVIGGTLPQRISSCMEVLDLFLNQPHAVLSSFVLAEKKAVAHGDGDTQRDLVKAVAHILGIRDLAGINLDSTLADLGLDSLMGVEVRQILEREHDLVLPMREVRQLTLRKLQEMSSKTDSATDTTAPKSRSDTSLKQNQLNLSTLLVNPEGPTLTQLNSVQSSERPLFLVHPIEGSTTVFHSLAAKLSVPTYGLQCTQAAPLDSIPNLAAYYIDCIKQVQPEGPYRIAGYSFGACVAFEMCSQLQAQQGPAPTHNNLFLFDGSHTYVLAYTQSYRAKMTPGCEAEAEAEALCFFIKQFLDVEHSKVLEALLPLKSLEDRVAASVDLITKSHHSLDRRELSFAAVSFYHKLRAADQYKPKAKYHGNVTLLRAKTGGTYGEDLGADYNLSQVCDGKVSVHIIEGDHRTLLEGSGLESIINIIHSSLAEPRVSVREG

Row | Molecule | FASN activity, % of vehicle group [1] | nuclear NF-κB levels (NF-κB) | half-life at 0.5 mM [2] | histological examination of liver, heart, kidney lung and brain [3] | % of FASN inhibition (FASN) | changes on body weight versus the control group [4] | reduction of FASN activity ([1]; 56 dpi) | protein levels of TNF-α, IL-1β and IL-6 compared to vehicle group (TNF-α, IL-1β and IL-6) | half-life (t1/2) [2]
1 | O=C(Oc1cccc2c(OC(=O)c3cc(O)c(O)c(O)c3)cccc12)c1cc(O)c(O)c(O)c1 [Compound 23, 1,5-Bis [(3,4,5-trihydroxybenzoyl)oxy] naphthalene] | No differences | no changes | 18 min | no microscopic evidence of drug induces toxicity | 30% | neither 23 nor 30 caused changes on body weight |  |  | 
2 | O=C(Oc1ccc(-c2ccc(OC(=O)c3cc(O)c(O)c(O)c3)cc2)cc1)c1cc(O)c(O)c(O)c1 [Compound 30, 4,4′-Bis [(3,4,5-trihydroxybenzoyl)oxy]-1,1′-biphenyl] | 61±8 % of vehicle group | reduced | 24 min | no microscopic evidence of drug induces toxicity | 90% | neither 23 nor 30 caused changes on body weight | 32±9 % of vehicle | reduced | 
3 | epigallocatechin-3-gallate [EGCG] | 57±8 % of vehicle group | reduced |  |  |  |  |  | reduced | < 0,1 h
